Assay results as given in PubChem BioAssay (NCI).
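GI50: concentration for 50% inhibition of growth. At the TGI there is no net growth.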

Legend:
Experiment in all cases: NCI-60 cell line screen, 384-well format
A549 NSCLC = tested on: A549 NSCLC
SR leukemia = tested on: SR leukemia
CAKI-1 renal = tested on: CAKI-1 renal
M14 melanoma = tested on: M14 melanoma
MDA-MB-435 melanoma = tested on: MDA-MB-435 melanoma
UACC-257 melanoma = tested on: UACC-257 melanoma
NCI-H23 lung = tested on: NCI-H23 lung
MDA-MB-231 breast = tested on: MDA-MB-231 breast
HL-60(TB) leukemia = tested on: HL-60(TB) leukemia
SN12C renal = tested on: SN12C renal
OVCAR-4 ovarian = tested on: OVCAR-4 ovarian
SW-620 colon = tested on: SW-620 colon
MOLT-4 leukemia = tested on: MOLT-4 leukemia
MCF7 breast = tested on: MCF7 breast
UO-31 renal = tested on: UO-31 renal
TK-10 renal = tested on: TK-10 renal
K-562 leukemia = tested on: K-562 leukemia
KM12 colon = tested on: KM12 colon
DU-145 prostate = tested on: DU-145 prostate
NCI-H226 lung = tested on: NCI-H226 lung
SNB-75 CNS = tested on: SNB-75 CNS
SNB-19 CNS = tested on: SNB-19 CNS
RXF 393 renal = tested on: RXF 393 renal
NCI-H460 NSCLC = tested on: NCI-H460 NSCLC
MALME-3M melanoma = tested on: MALME-3M melanoma
OVCAR-5 ovarian = tested on: OVCAR-5 ovarian
CCRF-CEM leukemia = tested on: CCRF-CEM leukemia
UACC-62 melanoma = tested on: UACC-62 melanoma
HCT-15 colon = tested on: HCT-15 colon
IGROV1 ovarian = tested on: IGROV1 ovarian
T-47D breast = tested on: T-47D breast
NCI/ADR-RES ovarian = tested on: NCI/ADR-RES ovarian
U251 glioblastoma = tested on: U251 glioblastoma
MDA-MB-468 breast = tested on: MDA-MB-468 breast
OVCAR-3 ovarian = tested on: OVCAR-3 ovarian
BT-549 breast = tested on: BT-549 breast
HS 578T breast = tested on: HS 578T breast
HOP-92 NSCLC = tested on: HOP-92 NSCLC
HT29 colon = tested on: HT29 colon
SF-268 CNS = tested on: SF-268 CNS
RPMI-8226 leukemia = tested on: RPMI-8226 leukemia
NCI-H322M lung = tested on: NCI-H322M lung
ACHN renal = tested on: ACHN renal
SK-MEL-5 melanoma = tested on: SK-MEL-5 melanoma
786-0 renal = tested on: 786-0 renal
EKVX NSCLC = tested on: EKVX NSCLC
NCI-H522 lung = tested on: NCI-H522 lung
HOP-62 NSCLC = tested on: HOP-62 NSCLC
SF-539 CNS = tested on: SF-539 CNS
HCC-2998 colon = tested on: HCC-2998 colon
SK-OV-3 ovarian = tested on: SK-OV-3 ovarian
COLO 205 colon = tested on: COLO 205 colon
SK-MEL-28 melanoma = tested on: SK-MEL-28 melanoma
LOX IMVI melanoma = tested on: LOX IMVI melanoma
OVCAR-8 ovarian = tested on: OVCAR-8 ovarian
A498 renal = tested on: A498 renal
SF-295 CNS = tested on: SF-295 CNS
PC-3 prostate = tested on: PC-3 prostate

How did the GI50 (A549 NSCLC) turn out when `C[C@@H]1COC(Nc2ccc3ncnc(Nc4ccc(OCc5nccs5)c(Cl)c4)c3c2)=N1` was run?
Its GI50 is 4.91 µM.

And the TGI (A549 NSCLC)?
Its TGI is 19.8 µM.

What about the GI50 (SR leukemia) of the same compound?
Its GI50 is 7.27 µM.

What about the TGI (SR leukemia) of the same compound?
Its TGI is 20.5 µM.

And the GI50 (CAKI-1 renal)?
Its GI50 is 1.81 µM.

What about the TGI (CAKI-1 renal) of the same compound?
The TGI was 14.8 µM.

And the GI50 (M14 melanoma)?
The GI50 was 6.3 µM.

And the TGI (M14 melanoma)?
Its TGI is 18.3 µM.

And the GI50 (MDA-MB-435 melanoma)?
Its GI50 is 11.8 µM.

And the TGI (MDA-MB-435 melanoma)?
The TGI was 24.7 µM.

And the GI50 (UACC-257 melanoma)?
Its GI50 is 9.37 µM.

And the TGI (UACC-257 melanoma)?
The TGI was 21.2 µM.

What about the GI50 (NCI-H23 lung) of the same compound?
Its GI50 is 7.4 µM.

What about the TGI (NCI-H23 lung) of the same compound?
The TGI was 26.3 µM.

And the GI50 (MDA-MB-231 breast)?
The GI50 was 9.67 µM.

What about the TGI (MDA-MB-231 breast) of the same compound?
The TGI was 22.8 µM.

What about the GI50 (HL-60(TB) leukemia) of the same compound?
The GI50 was 3.82 µM.

And the TGI (HL-60(TB) leukemia)?
Its TGI is 8.05 µM.

And the GI50 (SN12C renal)?
Its GI50 is 2.78 µM.

And the TGI (SN12C renal)?
The TGI was 16.1 µM.

What about the GI50 (OVCAR-4 ovarian) of the same compound?
Its GI50 is 2.32 µM.

And the TGI (OVCAR-4 ovarian)?
The TGI was 14.8 µM.

And the GI50 (SW-620 colon)?
The GI50 was 19 µM.

What about the TGI (SW-620 colon) of the same compound?
Its TGI is 35.7 µM.

And the GI50 (MOLT-4 leukemia)?
Its GI50 is 1.85 µM.

What about the TGI (MOLT-4 leukemia) of the same compound?
Its TGI is 3.59 µM.

And the GI50 (MCF7 breast)?
The GI50 was 5.96 µM.

What about the TGI (MCF7 breast) of the same compound?
The TGI was 21.2 µM.

What about the GI50 (UO-31 renal) of the same compound?
The GI50 was 10.9 µM.

What about the TGI (UO-31 renal) of the same compound?
Its TGI is 23.6 µM.

What about the GI50 (TK-10 renal) of the same compound?
The GI50 was 1.48 µM.

And the TGI (TK-10 renal)?
The TGI was 17.9 µM.

What about the GI50 (K-562 leukemia) of the same compound?
Its GI50 is 4.48 µM.

And the TGI (K-562 leukemia)?
The TGI was 16.6 µM.

And the GI50 (KM12 colon)?
Its GI50 is 5.6 µM.

And the TGI (KM12 colon)?
The TGI was 18.8 µM.

What about the GI50 (DU-145 prostate) of the same compound?
The GI50 was 3.22 µM.

And the TGI (DU-145 prostate)?
The TGI was 17.6 µM.

What about the GI50 (NCI-H226 lung) of the same compound?
The GI50 was 1.66 µM.

What about the TGI (NCI-H226 lung) of the same compound?
Its TGI is 5.47 µM.

What about the GI50 (SNB-75 CNS) of the same compound?
Its GI50 is 13.5 µM.

What about the TGI (SNB-75 CNS) of the same compound?
The TGI was 28.2 µM.

And the GI50 (SNB-19 CNS)?
The GI50 was 11.1 µM.

What about the TGI (SNB-19 CNS) of the same compound?
Its TGI is 24.5 µM.

What about the GI50 (RXF 393 renal) of the same compound?
The GI50 was 5.8 µM.

And the TGI (RXF 393 renal)?
Its TGI is 18.7 µM.

What about the GI50 (NCI-H460 NSCLC) of the same compound?
Its GI50 is 3.71 µM.

And the TGI (NCI-H460 NSCLC)?
The TGI was 12.8 µM.

What about the GI50 (MALME-3M melanoma) of the same compound?
The GI50 was 3.43 µM.

And the TGI (MALME-3M melanoma)?
Its TGI is 11.4 µM.

And the GI50 (OVCAR-5 ovarian)?
The GI50 was 6.68 µM.

And the TGI (OVCAR-5 ovarian)?
Its TGI is 28.2 µM.

And the GI50 (CCRF-CEM leukemia)?
Its GI50 is 3.44 µM.

And the TGI (CCRF-CEM leukemia)?
The TGI was 8.53 µM.

What about the GI50 (UACC-62 melanoma) of the same compound?
Its GI50 is 4.25 µM.

What about the TGI (UACC-62 melanoma) of the same compound?
Its TGI is 16.2 µM.

And the GI50 (HCT-15 colon)?
The GI50 was 5.44 µM.

And the TGI (HCT-15 colon)?
The TGI was 21.5 µM.

What about the GI50 (IGROV1 ovarian) of the same compound?
Its GI50 is 0.335 µM.

What about the TGI (IGROV1 ovarian) of the same compound?
The TGI was 2.13 µM.

What about the GI50 (T-47D breast) of the same compound?
The GI50 was 0.641 µM.

What about the TGI (T-47D breast) of the same compound?
The TGI was 4.52 µM.

And the GI50 (NCI/ADR-RES ovarian)?
Its GI50 is 2.39 µM.

And the TGI (NCI/ADR-RES ovarian)?
The TGI was 6.92 µM.

What about the GI50 (U251 glioblastoma) of the same compound?
The GI50 was 10.7 µM.

What about the TGI (U251 glioblastoma) of the same compound?
The TGI was 22.8 µM.

What about the GI50 (MDA-MB-468 breast) of the same compound?
Its GI50 is 0.137 µM.

What about the TGI (MDA-MB-468 breast) of the same compound?
The TGI was 0.342 µM.

And the GI50 (OVCAR-3 ovarian)?
Its GI50 is 1.83 µM.

What about the TGI (OVCAR-3 ovarian) of the same compound?
Its TGI is 7.84 µM.

And the GI50 (BT-549 breast)?
Its GI50 is 3.81 µM.

And the TGI (BT-549 breast)?
The TGI was 12.2 µM.

And the GI50 (HS 578T breast)?
Its GI50 is 4.71 µM.

What about the TGI (HS 578T breast) of the same compound?
The TGI was 15.6 µM.

What about the GI50 (HOP-92 NSCLC) of the same compound?
The GI50 was 3.25 µM.

What about the TGI (HOP-92 NSCLC) of the same compound?
Its TGI is 17 µM.

And the GI50 (HT29 colon)?
Its GI50 is 6.33 µM.

And the TGI (HT29 colon)?
The TGI was 19.9 µM.

What about the GI50 (SF-268 CNS) of the same compound?
Its GI50 is 9.55 µM.

What about the TGI (SF-268 CNS) of the same compound?
Its TGI is 23.5 µM.

And the GI50 (RPMI-8226 leukemia)?
Its GI50 is 3.48 µM.

What about the TGI (RPMI-8226 leukemia) of the same compound?
Its TGI is 11 µM.

And the GI50 (NCI-H322M lung)?
The GI50 was 0.337 µM.

And the TGI (NCI-H322M lung)?
Its TGI is 12.9 µM.

And the GI50 (ACHN renal)?
The GI50 was 0.563 µM.

And the TGI (ACHN renal)?
Its TGI is 17.4 µM.

And the GI50 (SK-MEL-5 melanoma)?
Its GI50 is 1.77 µM.

What about the TGI (SK-MEL-5 melanoma) of the same compound?
The TGI was 4.21 µM.

What about the GI50 ([…]-0 renal) of the same compound?
Its GI50 is 4.26 µM.

What about the TGI (786-0 renal) of the same compound?
The TGI was 16.9 µM.

What about the GI50 (EKVX NSCLC) of the same compound?
Its GI50 is 0.332 µM.

And the TGI (EKVX NSCLC)?
The TGI was 11.4 µM.

What about the GI50 (NCI-H522 lung) of the same compound?
The GI50 was 0.539 µM.

And the TGI (NCI-H522 lung)?
The TGI was 2.66 µM.

What about the GI50 (HOP-62 NSCLC) of the same compound?
Its GI50 is 4.22 µM.

What about the TGI (HOP-62 NSCLC) of the same compound?
Its TGI is 15 µM.

What about the GI50 (SF-539 CNS) of the same compound?
Its GI50 is 12.3 µM.

What about the TGI (SF-539 CNS) of the same compound?
Its TGI is 24.8 µM.

What about the GI50 (HCC-2998 colon) of the same compound?
Its GI50 is 12.3 µM.

And the TGI (HCC-2998 colon)?
The TGI was 26.7 µM.

And the GI50 (SK-OV-3 ovarian)?
Its GI50 is 2.2 µM.

What about the TGI (SK-OV-3 ovarian) of the same compound?
Its TGI is 12.5 µM.

And the GI50 (COLO 205 colon)?
Its GI50 is 6.44 µM.

And the TGI (COLO 205 colon)?
Its TGI is 19 µM.

And the GI50 (SK-MEL-28 melanoma)?
Its GI50 is 4.88 µM.

And the TGI (SK-MEL-28 melanoma)?
Its TGI is 17.2 µM.

What about the GI50 (LOX IMVI melanoma) of the same compound?
The GI50 was 3.25 µM.

And the TGI (LOX IMVI melanoma)?
The TGI was 11.6 µM.

What about the GI50 (OVCAR-8 ovarian) of the same compound?
Its GI50 is 3.12 µM.

And the TGI (OVCAR-8 ovarian)?
Its TGI is 12.4 µM.

And the GI50 (A498 renal)?
The GI50 was 4.31 µM.

What about the TGI (A498 renal) of the same compound?
The TGI was 19 µM.

And the GI50 (SF-295 CNS)?
Its GI50 is 13 µM.

What about the TGI (SF-295 CNS) of the same compound?
Its TGI is 26.2 µM.

What about the GI50 (PC-3 prostate) of the same compound?
Its GI50 is 5.36 µM.

And the TGI (PC-3 prostate)?
Its TGI is 17 µM.
